In PubChem BioAssay AID330 (DTP/NCI, 2004):
Several values for one entry are separate records, joined by “and”; a condition that tells them apart may be missing. Equal entries are not always repeated. Inconclusive results and toxic doses are left out.

Test system: P388 leukemia ip, CD2F1 mice, survival T/C
Assay: NCI In Vivo Anticancer Drug Screen. Data for tumor model P388 Leukemia (intraperitoneal) in CD2F1 (CDF1) mice
Conditions: endpoint: median survival time, higher = longer survival
Summary of the method: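 Mice carrying the transplanted tumor received test compound or vehicle. Survival was recorded in each group, and the value is the treated-group measurement divided by that of the vehicle-treated control group.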

For `CC[C@]1(O)C[C@H]2CN(CCc3c([nH]c4ccccc34)[C@@](C(=O)OC)(c3cc4c(cc3OC)N(C=O)[C@H]3[C@@](O)(C(=O)OC)[C@H](OC(C)=O)[C@]5(CC)C=CCN6CC[C@]43[C@@H]65)C2)C1`, the T/C (dose: 0.06 mg/kg/injection, schedule: Q01DX010 (ip), vehicle: saline) was 168 % of control, the T/C (dose: 0.08 mg/kg/injection, schedule: Q01DX009 (ip), vehicle: saline) was 172 % of control and the T/C (dose: 0.08 mg/kg/injection, schedule: Q01DX009 (ip), vehicle: water) was 115 % of control. The T/C (dose: 0.12 mg/kg/injection, schedule: Q01DX009 (ip), vehicle: water) was 166 % of control, the T/C (dose: 0.12 mg/kg/injection, schedule: Q04DX003 (ip), vehicle: saline) was 163 % of control and the T/C (dose: 0.13 mg/kg/injection, schedule: Q01DX005 (ip), vehicle: saline) was 161 % of control and 168 % of control. For the same molecule, the T/C (dose: 0.13 mg/kg/injection, schedule: Q01DX010 (ip), vehicle: saline) was 181 % of control, the T/C (dose: 0.15 mg/kg/injection, schedule: Q01DX009 (ip), vehicle: saline) was 190 % of control and the T/C (dose: 0.18 mg/kg/injection, schedule: Q01DX005 (ip), vehicle: saline) was 110 % of control and 123 % of control. The T/C (dose: 0.2 mg/kg/injection, schedule: Q01DX009 (ip), vehicle: saline) was 169 % of control, the T/C (dose: 0.2 mg/kg/injection, schedule: Q04DX003 (ip), vehicle: water) was 196 % of control and the T/C (dose: 0.22 mg/kg/injection, schedule: Q01DX009 (ip), vehicle: saline) was 114 % of control. For the same molecule, the T/C (dose: 0.22 mg/kg/injection, schedule: Q01DX009 (ip), vehicle: water) was 113 % of control, the T/C (dose: 0.25 mg/kg/injection, schedule: Q01DX001 (ip), vehicle: saline with Tween-80) was 115 % of control and the T/C (dose: 0.25 mg/kg/injection, schedule: Q01DX001 (iv), vehicle: saline) was 122 % of control. For the same molecule, the T/C (dose: 0.25 mg/kg/injection, schedule: Q01DX005 (ip), vehicle: saline) was 180 % of control and 184 % of control, the T/C (dose: 0.25 mg/kg/injection, schedule: Q01DX010 (ip), vehicle: saline) was 177 % of control and the T/C (dose: 0.25 mg/kg/injection, schedule: Q04DX003 (iv), vehicle: saline) was 120 % of control. For the same molecule, the T/C (dose: 0.3 mg/kg/injection, schedule: Q01DX005 (ip), vehicle: saline) was 112 % of control, the T/C (dose: 0.3 mg/kg/injection, schedule: Q04DX002 (ip), vehicle: saline) was 150 % of control and the T/C (dose: 0.33 mg/kg/injection, schedule: Q01DX009 (ip), vehicle: saline) was 113 % of control. For the same molecule, the T/C (dose: 0.36 mg/kg/injection, schedule: Q01DX009 (ip), vehicle: water) was 150 % of control, the T/C (dose: 0.36 mg/kg/injection, schedule: Q04DX003 (ip), vehicle: saline) was 167 % of control and 169 % of control and 174 % of control and the T/C (dose: 0.36 mg/kg/injection, schedule: Q04DX003 (iv), vehicle: saline) was 119 % of control and 123 % of control. For the same molecule, the T/C (dose: 0.37 mg/kg/injection, schedule: Q04DX002 (ip), vehicle: saline) was 117 % of control, the T/C (dose: 0.39 mg/kg/injection, schedule: Q04DX002 (ip), vehicle: saline) was 154 % of control and 164 % of control and the T/C (dose: 0.4 mg/kg/injection, schedule: Q01DX005 (ip), vehicle: saline) was 171 % of control. For the same molecule, the T/C (dose: 0.4 mg/kg/injection, schedule: Q04DX003 (ip), vehicle: saline) was 113 % of control, the T/C (dose: 0.43 mg/kg/injection, schedule: Q04DX002 (ip), vehicle: saline) was 153 % of control and 176 % of control and the T/C (dose: 0.44 mg/kg/injection, schedule: Q04DX002 (ip), vehicle: saline) was 162 % of control. For the same molecule, the T/C (dose: 0.5 mg/kg/injection, schedule: Q04DX003 (oral), vehicle: water) was 100 % of control, the T/C (dose: 0.5 mg/kg/injection, schedule: Q04DX004 (ip), vehicle: saline) was 169 % of control and the T/C (dose: 0.53 mg/kg/injection, schedule: Q04DX003 (ip), vehicle: saline) was 179 % of control and 182 % of control. The T/C (dose: 0.6 mg/kg/injection, schedule: Q01DX009 (ip), vehicle: saline) was 200 % of control, the T/C (dose: 0.6 mg/kg/injection, schedule: Q04DX003 (ip), vehicle: saline) was 198 % of control and the T/C (dose: 0.65 mg/kg/injection, schedule: Q04DX002 (ip), vehicle: saline) was 161 % of control and 168 % of control. For the same molecule, the T/C (dose: 0.67 mg/kg/injection, schedule: Q04DX002 (ip), vehicle: saline) was 174 % of control, the T/C (dose: 0.72 mg/kg/injection, schedule: Q04DX002 (ip), vehicle: saline) was 158 % of control and 192 % of control and the T/C (dose: 0.8 mg/kg/injection, schedule: Q01DX005 (ip), vehicle: saline) was 186 % of control. For the same molecule, the T/C (dose: 0.8 mg/kg/injection, schedule: Q04DX003 (ip), vehicle: water) was 191 % of control, the T/C (dose: 0.8 mg/kg/injection, schedule: Q04DX003 (iv), vehicle: saline) was 161 % of control and 168 % of control and the T/C (dose: 1.0 mg/kg/injection, schedule: Q01DX003 (ip), vehicle: saline) was 163 % of control. The T/C (dose: 1.0 mg/kg/injection, schedule: Q04DX002 (ip), vehicle: saline) was 184 % of control, the T/C (dose: 1.0 mg/kg/injection, schedule: Q04DX003 (iv), vehicle: saline) was 182 % of control and the T/C (dose: 1.0 mg/kg/injection, schedule: Q04DX003 (oral), vehicle: water) was 106 % of control. For the same molecule, the T/C (dose: 1.08 mg/kg/injection, schedule: Q04DX002 (ip), vehicle: saline) was 167 % of control and 177 % of control, the T/C (dose: 1.2 mg/kg/injection, schedule: Q04DX002 (ip), vehicle: saline) was 169 % of control and 179 % of control and the T/C (dose: 1.2 mg/kg/injection, schedule: Q04DX003 (iv), vehicle: saline) was 173 % of control and 177 % of control. The T/C (dose: 1.3 mg/kg/injection, schedule: Q01DX001 (ip), vehicle: saline) was 156 % of control, the T/C (dose: 1.5 mg/kg/injection, schedule: Q04DX002 (ip), vehicle: saline) was 161 % of control and the T/C (dose: 1.8 mg/kg/injection, schedule: Q04DX002 (ip), vehicle: saline) was 191 % of control and 200 % of control. The T/C (dose: 1.8 mg/kg/injection, schedule: Q04DX003 (iv), vehicle: saline) was 167 % of control and 182 % of control, the T/C (dose: 2.0 mg/kg/injection, schedule: Q01DX001 (ip), vehicle: Klucel (hydroxypropylcellulose) (HPC)) was 155 % of control and 162 % of control and the T/C (dose: 2.0 mg/kg/injection, schedule: Q01DX001 (ip), vehicle: saline with Tween-80) was 157 % of control. For the same molecule, the T/C (dose: 2.0 mg/kg/injection, schedule: Q01DX001 (iv), vehicle: saline) was 154 % of control, the T/C (dose: 2.0 mg/kg/injection, schedule: Q04DX002 (ip), vehicle: saline) was 182 % of control and the T/C (dose: 2.0 mg/kg/injection, schedule: Q04DX003 (oral), vehicle: water) was 102 % of control. The T/C (dose: 2.7 mg/kg/injection, schedule: Q04DX003 (ip), vehicle: saline) was 179 % of control, the T/C (dose: 2.7 mg/kg/injection, schedule: Q04DX003 (iv), vehicle: saline) was 100 % of control and the T/C (dose: 3.0 mg/kg/injection, schedule: Q01DX001 (ip), vehicle: saline) was 170 % of control and 192 % of control. The T/C (dose: 3.0 mg/kg/injection, schedule: Q04DX002 (ip), vehicle: saline) was 99 % of control, the T/C (dose: 4.0 mg/kg/injection, schedule: Q01DX001 (ip), vehicle: Klucel (hydroxypropylcellulose) (HPC)) was 167 % of control and 174 % of control and the T/C (dose: 4.0 mg/kg/injection, schedule: Q01DX001 (ip), vehicle: saline with Tween-80) was 168 % of control. The T/C (dose: 4.0 mg/kg/injection, schedule: Q01DX001 (iv), vehicle: saline) was 121 % of control, the T/C (dose: 4.0 mg/kg/injection, schedule: Q04DX003 (oral), vehicle: water) was 110 % of control and the T/C (dose: 4.5 mg/kg/injection, schedule: Q01DX001 (ip), vehicle: saline) was 104 % of control. The T/C (dose: 8.0 mg/kg/injection, schedule: Q01DX001 (ip), vehicle: Klucel (hydroxypropylcellulose) (HPC)) was 194 % of control.

For `CC(C)N(C(=O)SCC(Cl)=C(Cl)Cl)C(C)C`, the T/C (dose: 60.0 mg/kg/injection, schedule: Q01DX005 (ip), vehicle: saline with Tween-80) was 100 % of control, the T/C (dose: 120.0 mg/kg/injection, schedule: Q01DX005 (ip), vehicle: saline with Tween-80) was 103 % of control and the T/C (dose: 240.0 mg/kg/injection, schedule: Q01DX005 (ip), vehicle: saline with Tween-80) was 102 % of control.

In the case of `O=[N+]([O-])O.[Cu+2].[NH-]CC[NH-].[NH-]CC[NH-]`, the T/C (dose: 3.12 mg/kg/injection, schedule: Q01DX009 (ip), vehicle: saline) is reported as 100 % of control, the T/C (dose: 6.25 mg/kg/injection, schedule: Q01DX009 (ip), vehicle: saline) is reported as 100 % of control and the T/C (dose: 12.5 mg/kg/injection, schedule: Q01DX009 (ip), vehicle: saline) is reported as 100 % of control. For the same molecule, the T/C (dose: 25.0 mg/kg/injection, schedule: Q01DX009 (ip), vehicle: saline) was 92 % of control.
